Drawing on ChEMBL document CHEMBL4680269, “N-benzylpiperidinol derivatives as novel USP7 inhibitors: Structure-activity relationships and X-ray crystallographic studies” (Eur J Med Chem, 2020), this text covers IC50 and inhibition for 31 compounds.

Activity calls are given as the source filed them. No cut-off for these calls is given here.

For orientation: IC50 means the point on the concentration scale where inhibition reaches its midpoint. As usually defined, the inhibition is the change of the read-out against control, counted positive when it falls.

In one assay the target is T1, Ubiquitin carboxyl-terminal hydrolase 7 (Homo sapiens, UniProt Q93009). As to the kind of experiment: Inhibition of recombinant human N-terminal His6-tagged full length USP7 expressed in baculovirus infected Sf21 cells using monoubiquitinated ubiquitin-rhodamine as substrate incubated for 30 mins followed by Ub-Rho addition and measured after 2 hrs by spectrophotometry.
Conditions: not given
Target sequence in this assay (Q93009 whole entry): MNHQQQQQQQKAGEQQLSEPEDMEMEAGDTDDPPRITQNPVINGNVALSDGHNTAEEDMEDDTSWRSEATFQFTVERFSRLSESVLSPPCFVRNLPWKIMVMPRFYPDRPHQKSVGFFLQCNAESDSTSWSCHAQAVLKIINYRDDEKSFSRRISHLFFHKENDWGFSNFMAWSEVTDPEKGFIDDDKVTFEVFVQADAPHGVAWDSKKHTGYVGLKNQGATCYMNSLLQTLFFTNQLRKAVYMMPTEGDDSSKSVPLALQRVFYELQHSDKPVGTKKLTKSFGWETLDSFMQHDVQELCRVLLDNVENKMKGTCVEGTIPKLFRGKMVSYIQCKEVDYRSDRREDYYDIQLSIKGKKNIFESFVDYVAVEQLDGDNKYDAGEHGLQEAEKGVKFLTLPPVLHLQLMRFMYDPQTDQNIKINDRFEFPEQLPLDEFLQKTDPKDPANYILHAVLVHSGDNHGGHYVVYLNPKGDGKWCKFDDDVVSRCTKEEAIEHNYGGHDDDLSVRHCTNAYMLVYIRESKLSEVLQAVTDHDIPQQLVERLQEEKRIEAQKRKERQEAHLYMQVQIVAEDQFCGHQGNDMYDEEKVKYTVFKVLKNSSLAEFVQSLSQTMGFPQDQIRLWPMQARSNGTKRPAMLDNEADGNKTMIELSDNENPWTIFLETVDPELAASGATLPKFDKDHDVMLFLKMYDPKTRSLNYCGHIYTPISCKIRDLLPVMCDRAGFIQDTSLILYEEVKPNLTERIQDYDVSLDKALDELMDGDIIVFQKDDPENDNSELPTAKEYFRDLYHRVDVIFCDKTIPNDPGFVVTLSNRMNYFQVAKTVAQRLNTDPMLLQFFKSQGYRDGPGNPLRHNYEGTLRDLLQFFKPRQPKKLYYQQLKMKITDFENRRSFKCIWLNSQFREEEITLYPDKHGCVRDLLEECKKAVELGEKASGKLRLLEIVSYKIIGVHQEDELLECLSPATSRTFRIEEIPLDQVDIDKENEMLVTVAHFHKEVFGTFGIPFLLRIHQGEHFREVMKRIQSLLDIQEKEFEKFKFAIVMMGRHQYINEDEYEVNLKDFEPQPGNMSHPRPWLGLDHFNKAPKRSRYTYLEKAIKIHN
In the case of `O=c1c2cnn(-c3ccc(F)cc3)c2ncn1CC1(O)CCN(Cc2ccccc2F)CC1`, the IC50 worked out at 9.8 µM. With `O=c1c2cnn(-c3ccc(F)cc3)c2ncn1CC1(O)CCN(Cc2ccc(Cl)cc2)CC1`, the 50% inhibitory concentration (IC50) came out at 8 µM. Still for that read-out and setting: as for `O=c1c2cnn(-c3ccc(F)cc3)c2ncn1CC1(O)CCN(Cc2ccc([N+](=O)[O-])cc2)CC1`, the figure is 9 µM; as for `COC(=O)c1ccc(CN2CCC(O)(Cn3cnc4c(Br)n(C)nc4c3=O)CC2)c(Cl)c1`, 0.157 µM. With `O=c1c2cnn(-c3ccc(F)cc3)c2ncn1CC1(O)CCN(Cc2ccc(Br)cc2Cl)CC1`, the half-inhibitory concentration (IC50) was 1.9 µM. The same measure, in the same setting: for `COC(=O)c1ccc(CN2CCC(O)(Cn3cnc4c(cnn4-c4ccc(F)cc4)c3=O)CC2)c(F)c1` the value was 0.8 µM.

With `COC(=O)c1ccc(CN2CCC(O)(Cn3cnc4c(cnn4-c4ccc(F)cc4)c3=O)CC2)cc1`, the IC50 stood at 4.5 µM.

As for `COC(=O)c1ccc(CN2CCC(O)(Cn3cnc4c(-c5ccc(CNC(C)=O)cc5)n(C)nc4c3=O)CC2)c(Cl)c1`, the IC50 is 0.121 µM.

`N#Cc1cc(Cl)ccc1CN1CCC(O)(Cn2cnc3c(cnn3-c3ccc(F)cc3)c2=O)CC1`: the IC50 is 11.4 µM. `N#Cc1ccccc1CN1CCC(O)(Cn2cnc3c(cnn3-c3ccc(F)cc3)c2=O)CC1`: the IC50 came to 8.1 µM. On the same count and under the same terms, for `COC(=O)c1ccc(CN2CCC(O)(Cn3cnc4c(cnn4-c4ccc(F)cc4)c3=O)CC2)c(Br)c1` the value was 0.9 µM; for `COC(=O)c1ccc(CN2CCC(O)(Cn3cnc4c(cnn4-c4ccc(F)cc4)c3=O)CC2)c(Cl)c1`, 0.8 µM. In the case of `O=c1c2cnn(-c3ccc(F)cc3)c2ncn1CC1(O)CCN(Cc2ccccc2Br)CC1`, the IC50 was 3.1 µM.

Regarding `O=c1c2cnn(-c3ccc(F)cc3)c2ncn1CC1(O)CCN(Cc2ccc(Br)cc2)CC1`, the half-maximal inhibitory concentration (IC50) was 6.7 µM. On the same count and under the same terms, as for `O=c1c2cnn(-c3ccc(F)cc3)c2ncn1CC1(O)CCN(Cc2ccc(F)cc2Cl)CC1`, the figure is 1.6 µM. The same measure, in the same setting: for `O=c1c2cnn(-c3ccc(F)cc3)c2ncn1CC1(O)CCN(Cc2ccc(Cl)cc2Cl)CC1` the value was 3.3 µM. The same measure, in the same setting: as for `O=c1c2cnn(-c3ccc(F)cc3)c2ncn1CC1(O)CCN(Cc2ccccc2Cl)CC1`, the figure is 3.4 µM; as for `COC(=O)c1ccc(CN2CCC(O)(Cn3cnc4c(-c5ccc(CNC(=O)OC(C)(C)C)cc5)n(C)nc4c3=O)CC2)c(Cl)c1`, 0.209 µM.

The target of a further assay is T1, Ubiquitin carboxyl-terminal hydrolase 7. Briefly: Inhibition of recombinant human N-terminal His6-tagged full length USP7 expressed in baculovirus infected Sf21 cells at 10 uM using monoubiquitinated ubiquitin-rhodamine as substrate incubated for 30 mins followed by Ub-Rho addition and measured after 2 hrs by spectrophotometry relative to control. As to conditions: time 2.5 hrs.
Target sequence in this assay (Q93009 whole entry, looked up): as the sequence (Q93009 whole entry) above
Consider `O=c1c2cnn(-c3ccc(F)cc3)c2ncn1CC1(O)CCN(c2ncccc2Cl)CC1`, for which the inhibition came out at 32%.

`O=Cc1cccnc1N1CCC(O)(Cn2cnc3c(cnn3-c3ccc(F)cc3)c2=O)CC1`: the inhibition result is “inactive”. Still for that read-out and setting: for `O=c1c2cnn(-c3ccc(F)cc3)c2ncn1CC1(O)CCN(c2ncccc2Br)CC1` the value was 32%; for `CCOC(=O)c1csc(N2CCC(O)(Cn3cnc4c(cnn4-c4ccc(F)cc4)c3=O)CC2)n1`, “inactive”; for `O=c1c2cnn(-c3ccc(F)cc3)c2ncn1CC1(O)CCN(c2ncccc2F)CC1`, “inactive”.

As to `O=c1c2cnn(-c3ccc(F)cc3)c2ncn1CC1(O)CCN(c2ccc3ccccc3n2)CC1`, the inhibition result was “inactive”. Still for that read-out and setting: as for `O=c1c2cnn(-c3ccc(F)cc3)c2ncn1CC1(O)CCN(c2cccc(C(F)(F)F)n2)CC1`, the entry is “inactive”; as for `O=c1c2cnn(-c3ccc(F)cc3)c2ncn1CC1(O)CCN(c2ncccc2I)CC1`, 32%; as for `O=c1c2cnn(-c3ccc(F)cc3)c2ncn1CC1(O)CCN(c2ncccn2)CC1`, “inactive”. Same read-out and setting: for `N#Cc1cccnc1N1CCC(O)(Cn2cnc3c(cnn3-c3ccc(F)cc3)c2=O)CC1` the value was “inactive”; for `O=c1c2cnn(-c3ccc(F)cc3)c2ncn1CC1(O)CCN(c2nccs2)CC1`, “inactive”; for `O=c1c2cnn(-c3ccc(F)cc3)c2ncn1CC1(O)CCN(c2ccccn2)CC1`, “inactive”. Still for that read-out and setting: as for `O=Cc1cccc(N2CCC(O)(Cn3cnc4c(cnn4-c4ccc(F)cc4)c3=O)CC2)n1`, the entry is “inactive”.
